Results from US9029337B2, “Modulation of factor 7 expression” (Isis Pharmaceuticals, Inc., priority 2007, dated 2015).
Strand notation (5' to 3'): a small letter for the sugar, then the base; units joined by * are phosphorothioate-linked, units joined directly phosphodiester-linked; [ ] holds rarer units or linkages, { } end groups; capitals alone tell only the bases. e = 2'-O-(2-methoxyethyl) (MOE); [5mC] = 5-methylcytosine; d = 2'-deoxy (DNA)

System: human Factor 7 mRNA
Experiment: Antisense inhibition of human Factor 7 with short (14-mer) oligonucleotides in HepB3 cells, electroporation 1,000 nM
Type: cell-based
Settings: electroporation, 1,000 nM antisense oligonucleotide, approximately 24 hours, Factor 7 mRNA relative to untreated control cells
Excerpt: Short antisense oligonucleotides (shortmers) were designed to target a Factor 7 nucleic acid. The shortmers in Table 17 were designed as 2-10-2 MOE gapmers. The gapmers are 14 nucleotides in length, wherein the central gap segment is comprised of 10 2′-deoxynucleotides and is flanked on both sides (in the 5′ and 3′ directions) by wings comprising 2 nucleotides each. Each nucleotide in the 5′ wing segment and each nucleotide in the 3′ wing segment has a 2′-MOE modification. The internucleoside linkages throughout each gapmer are phosphorothioate (P═S) linkages. All cytidine residues throughout each gapmer are 5-methylcytidines.
Shortmers were evaluated for their ability to reduce human Factor 7 mRNA in HepB3 cells and compared with one 5-10-5 chimeric oligonucleotide from Table 16, ISIS 407939. HepB3 cells at a density of 20,000 cells per well in a 96-well plate were transfected using electroporation with 1,000 nM of antisense oligonucleotide. After a treatment period of approximately 24 hours, RNA was isolated from the cells and Factor 7 mRNA levels were measured by real-time RT-PCR, as described herein. Factor 7 mRNA levels were adjusted according to total RNA content as measured by RIBOGREEN®. Results are presented in Table 17 as percent inhibition of Factor 7 mRNA, relative to untreated control cells. ISIS 407939 is the first oligonucleotide in Table 17 to which the shortmers were compared, and is marked by an asterisk (*).

Substance | % Inhibition [%]
435772 (antisense eG*e[5mC]*dA*dG*dT*d[5mC]*d[5mC]*d[5mC]*dT*dG*d[5mC]*dT*e[5mC]*eA) [compound 435772] | 42
435690 (antisense eG*eT*d[5mC]*d[5mC]*dG*dT*dT*d[5mC]*dG*dG*dG*d[5mC]*eA*eG) [compound 435690] | 55
435769 (antisense eT*eT*d[5mC]*dT*dT*dT*dG*dA*dA*dA*dA*dA*eT*eA) [compound 435769] | 0
435677 (antisense eG*eT*dG*d[5mC]*dT*d[5mC]*dG*d[5mC]*d[5mC]*d[5mC]*dA*dG*e[5mC]*eA) [compound 435677] | 60
435742 (antisense eA*eT*dG*dT*dG*dA*dG*dG*dG*dT*dT*d[5mC]*eA*eT) [compound 435742] | 11
435740 (antisense eT*e[5mC]*dA*dT*dT*dT*d[5mC]*dA*dG*dT*dG*dA*eT*eG) [compound 435740] | 0
435799 (antisense e[5mC]*eT*dG*dG*dT*d[5mC]*d[5mC]*d[5mC]*d[5mC]*dA*dT*d[5mC]*eT*eG) [compound 435799] | 33
435495 (antisense eG*eA*dG*dA*d[5mC]*d[5mC]*d[5mC]*dT*dG*dG*dT*dG*eT*eA) [compound 435495] | 27
435755 (antisense eG*eG*dG*dA*d[5mC]*dT*d[5mC]*dA*dG*d[5mC]*dA*dA*eG*eA) [compound 435755] | 0
435502 (antisense eG*eT*dA*d[5mC]*dT*dG*dG*dG*dA*dG*dA*d[5mC]*e[5mC]*e[5mC]) [compound 435502] | 69
435481 (antisense eG*eG*dG*dT*d[5mC]*dA*dT*d[5mC]*dA*dG*d[5mC]*d[5mC]*eG*eG) [compound 435481] | 50
435746 (antisense eA*eT*dT*dG*dA*d[5mC]*dA*dA*dG*dG*dG*d[5mC]*eT*eG) [compound 435746] | 32
435494 (antisense eA*eG*dA*d[5mC]*d[5mC]*d[5mC]*dT*dG*dG*dT*dG*dT*eA*e[5mC]) [compound 435494] | 47
435730 (antisense eT*eA*dA*dA*d[5mC]*dA*dA*d[5mC]*d[5mC]*dG*d[5mC]*d[5mC]*eT*eT) [compound 435730] | 49
435645 (antisense eG*eG*dA*dG*d[5mC]*dT*dG*dG*dT*d[5mC]*d[5mC]*dT*eT*eG) [compound 435645] | 44
435642 (antisense eA*e[5mC]*dA*d[5mC]*dT*dG*dG*dT*d[5mC]*d[5mC]*d[5mC]*d[5mC]*eA*eT) [compound 435642] | 60
435794 (antisense eG*eA*dG*dG*dT*dA*d[5mC]*dA*d[5mC]*dA*dG*dG*e[5mC]*eT) [compound 435794] | 26
435820 (antisense e[5mC]*eA*dT*d[5mC]*d[5mC]*dT*dA*dG*dT*d[5mC]*dA*d[5mC]*eT*eG) [compound 435820] | 19
435807 (antisense e[5mC]*eA*dG*dT*dA*d[5mC]*dT*dT*d[5mC]*d[5mC]*d[5mC]*dA*e[5mC]*eG) [compound 435807] | 35
435727 (antisense eT*eG*dG*dA*dG*dT*d[5mC]*dA*dG*d[5mC]*dA*dT*e[5mC]*eG) [compound 435727] | 73
435798 (antisense eA*eG*d[5mC]*d[5mC]*dA*dG*dA*d[5mC]*dT*dT*dT*d[5mC]*e[5mC]*eT) [compound 435798] | 54
435643 (antisense e[5mC]*eT*dT*dG*d[5mC]*dA*dG*dG*dA*dG*d[5mC]*d[5mC]*e[5mC]*e[5mC]) [compound 435643] | 51

Substance | % Inhibition [%]
435821 (antisense eA*eG*dT*d[5mC]*dA*dG*dT*dA*d[5mC]*dA*dG*dA*e[5mC]*eA) [compound 435821] | 0
435720 (antisense eA*eG*dG*d[5mC]*dT*d[5mC]*dA*dG*d[5mC]*dT*dG*dG*eG*e[5mC]) [compound 435720] | 16
435829 (antisense eG*eG*dG*dT*dA*dG*dA*d[5mC]*d[5mC]*d[5mC]*dT*d[5mC]*eA*eG) [compound 435829] | 18
435717 (antisense eT*eG*dA*dG*d[5mC]*dT*dT*dT*dT*dG*d[5mC]*dA*eG*e[5mC]) [compound 435717] | 0
435834 (antisense eT*eG*dA*d[5mC]*dA*dG*d[5mC]*dA*d[5mC]*dG*dA*dA*eG*e[5mC]) [compound 435834] | 20
435743 (antisense eG*e[5mC]*d[5mC]*dT*d[5mC]*dA*dA*dA*d[5mC]*dA*dT*d[5mC]*eT*eA) [compound 435743] | 40
435735 (antisense eT*eG*dG*dT*dG*dA*dT*dG*d[5mC]*dT*dT*d[5mC]*eT*eG) [compound 435735] | 81
435753 (antisense eA*eA*dG*dA*dG*dT*dG*d[5mC]*dA*dG*d[5mC]*dT*eT*eG) [compound 435753] | 9
435842 (antisense eA*eT*dT*dT*d[5mC]*d[5mC]*d[5mC]*dA*dT*dT*dG*dG*e[5mC]*eA) [compound 435842] | 0
435486 (antisense eG*eT*d[5mC]*d[5mC]*dT*dG*dG*dG*dT*d[5mC]*dA*dT*e[5mC]*eA) [compound 435486] | 64
435826 (antisense eA*eA*dG*dT*dG*dG*d[5mC]*dT*dG*dG*d[5mC]*dT*eG*eA) [compound 435826] | 27
435483 (antisense e[5mC]*eT*dG*dG*dG*dT*d[5mC]*dA*dT*d[5mC]*dA*dG*e[5mC]*e[5mC]) [compound 435483] | 82
435498 (antisense eT*eG*dG*dG*dA*dG*dA*d[5mC]*d[5mC]*d[5mC]*dT*dG*eG*eT) [compound 435498] | 37
435694 (antisense e[5mC]*eT*dG*d[5mC]*dA*dG*dG*d[5mC]*dA*dG*dT*d[5mC]*e[5mC]*eT) [compound 435694] | 39
435750 (antisense e[5mC]*eA*d[5mC]*dT*dG*d[5mC]*dA*dG*d[5mC]*d[5mC]*dA*dG*eG*eG) [compound 435750] | 14
435832 (antisense eT*eG*d[5mC]*dT*d[5mC]*dA*dG*dA*d[5mC]*d[5mC]*dT*dG*eG*e[5mC]) [compound 435832] | 70
435656 (antisense eA*e[5mC]*dT*dG*d[5mC]*dT*d[5mC]*dA*d[5mC]*dA*dG*d[5mC]*e[5mC]*eG) [compound 435656] | 58
435687 (antisense eA*eT*dG*dG*dT*d[5mC]*dA*dG*dT*dG*dA*dG*eG*eA) [compound 435687] | 7
435812 (antisense eG*e[5mC]*dT*dG*dA*dG*d[5mC]*dA*dG*dA*dG*dA*eT*e[5mC]) [compound 435812] | 35
435490 (antisense e[5mC]*e[5mC]*dT*dG*dG*dT*dG*dT*dA*d[5mC]*dA*d[5mC]*e[5mC]*e[5mC]) [compound 435490] | 49
435803 (antisense eG*eA*dG*dA*dA*dT*dT*dG*d[5mC]*d[5mC]*d[5mC]*dA*eG*eG) [compound 435803] | 0
